{
  "source": "patent US20120165384A1",
  "about": "“INHIBITION OF HISTONE ACETYLTRANSFERASES BY CTK7A AND METHODS THEREOF” (JAWAHARLAL NEHRU CENTRE FOR ADVANCED SCIENTIFIC RESEARCH, priority 2009, published 2012)",
  "key": {"[1]": {"assay": "Toxicity in mice after intraperitoneal administration", "assay_type": "in vivo", "protocol": "The in vitro and cell line based studies prompted us to study the role of CTK7A in xenograft mice. […] In order to test the effect of CTK7A on tumor growth, KB cells (2×10^6 cells) were inoculated in nude mice in the right and left flanks, respectively and treated them intraperitoneally with 100 mg/kg body weight/twice a day (for detail see Materials and Methods). […] KB cell tumors were 50% smaller in mice treated with CTK7A than in control untreated mice. The differences in the tumor size between xenografts (Control vs treated) was statistically significant (p<0.05). The levels of H3 acetylation and that of other proteins (e.g. NPM1, GAPDH, p300) were determined using IHC. […] It was observed that CTK7A decreased the levels of H3K9, K14 acetylation (as probed by H3AcK9AcK14) and ac-p300 (FIG. 6b and FIG. 6c). Further to see the site specific effect of CTK7A mediated HAT inhibition on histone acetylation, IHC was done with site specific antibodies. […] Moreover, the levels of COX2, which is induced in many cell types by mitogens, growth factors, cytokine and tumor promoters and has been implicated in many cancers, including oral cancer was also found to be suppressed in CTK7A treated tumors (FIG. 6b)."}, "KB cell tumors": {"system": "KB cell tumors", "assay": "Immunohistochemistry of KB cell tumors from treated mice", "assay_type": "in vivo, nude mice (BALB/c)", "protocol": "After deparafinizing, slides were rinsed in ethanol. Antigen retrieval was performed with sodium citrate (10 mM pH 6.0) for 5 min at 98° C. The staining was performed with the Envision kit (Dako, Denmark). Counterstaining was performed with Mayer's haematoxylin, and mounted in DPX and air dried. Each of the sample specimens was pathologically confirmed before carrying out the immunohistochemistry. For statistical analysis, cells (100 cells from a total of 5-6 independent fields) were counted from both normal and tumor tissue sections and scored for percentage of positive cells (brown colour) for the indicated antibodies. For comparison one-way ANOVA was performed using “Sigmaplot Software”. P-value<0.01 was considered as statistically significant, n=31.\nAnimal experiments were performed with the approval by authorized ethics Committee. Sixteen nude mice (BALB/c) were included in the experiments (10 male and 6 female mice). Mice were kept in isolators in a pathogen free environment. All nude mice were 3-4 weeks old at the start of the experiments. KB cells, 2×10^6 cells were inoculated in each mice in the right and left flanks, respectively. Mice were then divided in two groups (5 males and 3 females) in each group. After the tumors grown to palpable in size, CTK7A treatment were given intraperitoneally (i.p) with 100 mg/kg body weight/twice a day. Tumors were measured once in three days with a caliper and their volumes were calculated by the formula: 0.52×D1×(D2)^2, where ‘D1’ and ‘D2’ are, respectively, the longest and shortest dimension. The last dose of the compound (CTK7A) was administered four hour before sacrificing it. Tumors were removed and put into liquid nitrogen or were fixed in 10% formalin for 1-2 h to make blocks to be used for IHC. For comparing tumor sizes between treated and control one-way ANOVA was performed using “Sigmaplot Software”. P-value<0.05 was considered as statistically significant."}, "[2]": {"system": "H3 acetylation at the cyclin E promoter in KB cells", "assay": "ChIP assay, acetylated H3 at cyclin E promoter", "assay_type": "cell-based", "settings": "24 hrs treatment", "protocol": "The pull-downs for ChIP assay was performed using anti-acetylated H3 (H3AcK9AcK14) (Santa Cruz) antibody. KB cells were maintained in DMEM supplemented with 10% FBS were treated with CTK7A and cells were grown for 24 hrs. For ChIP assay cells were processed as described elsewhere^47. The pulldown was done using antibody against the above antibody and the immunoprecipitated samples were deproteinized and ethanol-precipitated to recover the DNA. Real-time PCR analysis was performed using primers for the cyclin E promoter region. PCR primers for the cyclin E promoter region were […]"}, "Solubility test in water": {"assay": "Solubility test in water", "assay_type": "physicochemical", "protocol": "To a solution of curcumin in methanol (10 mg, 0.027 Mmol) […]. After incubation for 24 h, the solvent was evaporated in vacuum. The residue […] was purified with repeated recrystallization and filtration method using TLC (CHCl3/MeOH=4:1; Rf=0.5). This gave CTK7 as a dark orange powder (7.18 mg, 55%) which was analyzed by H^1 NMR, Melting point test, Solubility test and ESI-MS.\nTo a solution of CTK7 in methanol (50 mg, 0.1031 mmol), (10 ml) of Sodium ethoxide was added ([…], 0.1175 mmol) and the reaction mixture was stirred at room temperature for 90 minutes. The solvent was evaporated in vacuum and the residue was washed with hexane, diethyl ether and ethyl acetate. Product was confirmed through H^1 NMR, Solubility test, melting point."}, "p300": {"target": "p300 (Homo sapiens, UniProt Q09472)", "sequence (Q09472 whole entry, species assumed)": "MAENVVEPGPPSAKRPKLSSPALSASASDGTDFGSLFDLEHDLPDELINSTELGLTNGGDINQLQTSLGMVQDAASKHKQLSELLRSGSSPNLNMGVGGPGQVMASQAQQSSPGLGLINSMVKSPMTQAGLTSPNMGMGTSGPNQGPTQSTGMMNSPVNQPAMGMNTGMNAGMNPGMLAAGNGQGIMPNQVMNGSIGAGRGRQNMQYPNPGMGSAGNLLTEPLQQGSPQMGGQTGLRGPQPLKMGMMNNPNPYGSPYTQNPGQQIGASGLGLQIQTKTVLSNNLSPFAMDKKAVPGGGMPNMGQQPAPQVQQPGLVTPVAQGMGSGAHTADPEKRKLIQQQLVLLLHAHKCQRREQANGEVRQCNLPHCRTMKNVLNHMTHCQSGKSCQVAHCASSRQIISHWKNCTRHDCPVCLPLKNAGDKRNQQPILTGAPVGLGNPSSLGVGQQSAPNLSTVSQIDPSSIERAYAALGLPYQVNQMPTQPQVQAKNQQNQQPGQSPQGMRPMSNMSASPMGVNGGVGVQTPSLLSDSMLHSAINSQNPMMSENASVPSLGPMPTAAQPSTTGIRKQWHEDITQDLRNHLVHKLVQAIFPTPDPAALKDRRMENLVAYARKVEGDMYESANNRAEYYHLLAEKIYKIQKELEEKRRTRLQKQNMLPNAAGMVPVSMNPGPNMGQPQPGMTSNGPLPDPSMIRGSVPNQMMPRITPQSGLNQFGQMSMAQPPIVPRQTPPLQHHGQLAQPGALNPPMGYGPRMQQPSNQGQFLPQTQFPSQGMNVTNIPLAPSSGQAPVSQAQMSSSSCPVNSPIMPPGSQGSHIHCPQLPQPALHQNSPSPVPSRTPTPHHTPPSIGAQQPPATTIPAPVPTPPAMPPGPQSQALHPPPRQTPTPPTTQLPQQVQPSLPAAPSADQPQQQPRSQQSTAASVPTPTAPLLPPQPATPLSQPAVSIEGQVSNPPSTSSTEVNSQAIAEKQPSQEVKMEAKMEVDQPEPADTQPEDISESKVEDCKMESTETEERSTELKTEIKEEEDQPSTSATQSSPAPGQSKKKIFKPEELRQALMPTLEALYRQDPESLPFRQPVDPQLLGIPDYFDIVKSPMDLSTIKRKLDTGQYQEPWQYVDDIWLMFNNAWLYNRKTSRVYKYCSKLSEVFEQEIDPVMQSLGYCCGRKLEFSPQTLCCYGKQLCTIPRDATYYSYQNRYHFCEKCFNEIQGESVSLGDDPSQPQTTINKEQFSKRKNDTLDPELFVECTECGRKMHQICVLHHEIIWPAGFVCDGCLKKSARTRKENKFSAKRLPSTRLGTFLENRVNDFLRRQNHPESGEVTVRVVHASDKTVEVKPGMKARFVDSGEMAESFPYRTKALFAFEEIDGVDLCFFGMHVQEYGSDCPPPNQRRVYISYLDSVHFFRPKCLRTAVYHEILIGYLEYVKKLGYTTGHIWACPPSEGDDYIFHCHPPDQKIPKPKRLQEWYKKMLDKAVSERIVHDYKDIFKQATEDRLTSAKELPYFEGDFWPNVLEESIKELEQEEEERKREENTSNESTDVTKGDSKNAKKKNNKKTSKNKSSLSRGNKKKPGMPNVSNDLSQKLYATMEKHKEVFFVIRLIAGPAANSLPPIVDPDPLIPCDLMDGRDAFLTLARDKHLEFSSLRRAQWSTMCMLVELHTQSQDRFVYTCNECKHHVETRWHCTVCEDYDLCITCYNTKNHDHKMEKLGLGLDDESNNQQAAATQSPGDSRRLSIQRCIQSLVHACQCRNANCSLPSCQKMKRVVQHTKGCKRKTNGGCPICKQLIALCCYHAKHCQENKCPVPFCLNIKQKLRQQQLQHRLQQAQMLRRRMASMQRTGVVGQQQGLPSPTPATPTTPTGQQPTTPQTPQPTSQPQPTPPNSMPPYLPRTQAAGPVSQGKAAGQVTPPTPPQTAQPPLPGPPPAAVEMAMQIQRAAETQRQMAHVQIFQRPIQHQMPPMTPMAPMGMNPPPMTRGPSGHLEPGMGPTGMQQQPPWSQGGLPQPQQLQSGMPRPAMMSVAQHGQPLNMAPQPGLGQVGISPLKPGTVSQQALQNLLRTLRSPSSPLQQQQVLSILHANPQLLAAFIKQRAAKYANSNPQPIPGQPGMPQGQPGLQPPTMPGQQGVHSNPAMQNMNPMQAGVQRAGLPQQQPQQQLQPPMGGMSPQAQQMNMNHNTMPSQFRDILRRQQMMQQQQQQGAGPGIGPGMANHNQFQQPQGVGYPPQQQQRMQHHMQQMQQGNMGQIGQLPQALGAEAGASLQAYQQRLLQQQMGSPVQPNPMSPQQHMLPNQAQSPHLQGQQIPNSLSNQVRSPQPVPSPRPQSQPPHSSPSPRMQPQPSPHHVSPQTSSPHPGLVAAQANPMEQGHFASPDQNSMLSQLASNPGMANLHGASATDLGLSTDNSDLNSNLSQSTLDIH", "assay": "p300 autoacetylation enhanced by cocktail of HDAC inhibitors (immunoprecipitation)", "assay_type": "cell-based", "protocol": "Whole cell extract were prepared using RIPA buffer as mentioned above. The pre-blocked protein-G sepharose-bound antibody (4 μg) was incubated with 500 μg whole cell lysate overnight at 4° C. After extensive washes, bead-bound protein were analysed by western blotting with indicated antibodies. For HDAC inhibitors treatment, 5 mM sodium butyrate, 5 mM nicotiamide and 100 ng ml^−1 TSA were added 10 h before cells were harvest^36."}, "full length p300": {"target": "T1, full length p300 (Homo sapiens, UniProt Q09472)", "T1 construct": "hexahistidine; made in house; host or cells: baculovirus-infected Sf21 cells", "T1 sequence (Q09472 whole entry, species assumed)": "as above", "assay": "p300 autoacetylation assay in vitro (3H-acetyl CoA, fluorography/autoradiography)", "assay_type": "biochemical", "settings": "in vitro, concentration dependent", "protocol": "HAT gel fluorography/autoradiography assays were performed as previously reported^30. Kinetic analysis of p300 HAT inhibition was performed as reported earlier^31 in the presence of (0, 30 and 50 μM) CTK7A. The obtained values were plotted as a lineweaver burk plot using Graphpad Prism software. For p300 Autoacetylation assay, reactions of p300 full length (80 ng) were carried out in HAT assay buffer at 30° C. for 10 minutes with or without the protein (NPM1) followed by addition of 1 μl of 4.7 Ci/mmol [^3H] acetyl CoA (NEN-PerkinElmer) and were further incubated for another 10 min in a 30 μl reaction. GAPDH was used as positive control. The radio-labeled acetylated p300 were processed by fluorography followed by autoradiography."}},
  "data": [
    {"compound": "COc1cc([O-])cc(C=CC2=NN(c3ccc(C(=O)[O-])cc3)C(C=Cc3cc([O-])cc(OC)c3)C2)c1.[Na+].[Na+].[Na+]", "note": "(stereo not shown) [CTK7A, Sodium 4-(3,5-bis(3-methoxy-5-oxidostyryl)-4,5dihydro-1H-pyrazole-1-yl)benzoate]", "values": [
      {"measurement": "body weight loss", "setting": "[1]; doses up to 100 mg/kg body weight/twice a day during 1 month", "value": "no observed weight loss"},
      {"measurement": "toxicity to mice", "setting": "[1]; intraperitoneal (i.p) administration", "value": "not toxic"},
      {"measurement": "levels of COX2 in tumors (IHC)", "setting": "KB cell tumors; i.p. 100 mg/kg twice a day", "value": "suppressed"},
      {"measurement": "levels of GAPDH in tumors (IHC)", "setting": "KB cell tumors; i.p. 100 mg/kg twice a day", "value": "down regulated"},
      {"measurement": "levels of H3K9, K14 acetylation (H3AcK9AcK14) in tumors (IHC)", "setting": "KB cell tumors; i.p. 100 mg/kg twice a day", "value": "decreased"},
      {"measurement": "levels of NPM1 in tumors (IHC)", "setting": "KB cell tumors; i.p. 100 mg/kg twice a day", "value": "down regulated"},
      {"measurement": "levels of ac-p300 in tumors (IHC)", "setting": "KB cell tumors; i.p. 100 mg/kg twice a day", "value": "decreased"},
      {"measurement": "levels of iNOS in tumors (IHC)", "setting": "KB cell tumors; i.p. 100 mg/kg twice a day", "value": "down regulated"},
      {"measurement": "p300 expression in tumors (IHC)", "setting": "KB cell tumors; i.p. 100 mg/kg twice a day", "value": "marginal affect"},
      {"measurement": "proliferation marker Ki-67 in tumors (IHC)", "setting": "KB cell tumors; i.p. 100 mg/kg twice a day", "value": "down regulation"},
      {"measurement": "nuclear GAPDH in tumors (IHC)", "setting": "KB cell tumors; present in control mice", "value": "absent or very faintly present"},
      {"measurement": "inhibition of H3K14 acetylation compared with H3K9 acetylation in tumors (IHC)", "setting": "KB cell tumors; site specific antibodies", "value": "more potently"},
      {"measurement": "acetylation of H3 at the cyclin E promoter", "setting": "[2]", "value": "inhibited"},
      {"measurement": "solubility in water", "setting": "Solubility test in water", "value": "Soluble"},
      {"measurement": "inhibition of enhanced autoacetylation of p300", "setting": "p300", "value": "inhibit"},
      {"measurement": "inhibition of p300 autoacetylation", "setting": "full length p300", "value": "inhibit"}
    ]}
  ]
}
